Literature values, collected in patent publication US20080160594A1, “Methods of Light Activated Release of Ligands from Endosomes” (INVITROGEN CORPORATION, priority 2001, published 2008).

Conditions: Vlassov et al., 1994

In the case of CCCCCCCC/C=C\CCCCCCCCOCC(C[N+](C)(C)C)OCCCCCCCC/C=C\CCCCCCCC.[Cl-] (stereo not shown) [DOTMA, N-(1-(2,3-dioleyloxy)propyl)-N,N,N-trimethylammonium chloride], the “increase of the antisense effect of a phosphorothioate oligonucleotide” value is listed as 1000 fold.
